The values that follow come from PubChem BioAssay AID743503 (Broad Institute, 2014).

The structures appear in SMILES notation. The source made the active and inactive calls.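 The calls were made as follows: active = IC50 under 35 µM for lowering the luciferase reporter signal in dopamine receptor counterscreen cells; inactive = IC50 over 35 µM.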

This assay concerns HEK293 dopamine receptor CRE-luciferase, luminescence. In words: dopamine receptor antagonists, CRE-luciferase reporter, dose response, counter-screen for LGR2 antagonist project, cell-based, HEK293, luminescence, dry powder, set 2 (AID 743503).
What is called IC50 is the concentration needed to halve the response being measured. As to `C[C@H](CO)N1C[C@H](C)[C@H](CN(C)C(=O)Nc2ccc3ccccc3c2)OCCCC[C@H](C)Oc2ccc(NC(=O)C3CCCCC3)cc2C1=O`, the IC50 is > 35 µM (inactive). Regarding `C[C@H](CO)N1C[C@H](C)[C@H](CN(C)C(=O)Nc2ccccc2F)OCCCC[C@H](C)Oc2ccc(NC(=O)C3CCCCC3)cc2C1=O`, the IC50 was > 35 µM (inactive).

On to `C[C@H](CO)N1C[C@H](C)[C@H](CN(C)C(=O)Nc2ccc(F)cc2)OCCCC[C@H](C)Oc2ccc(NC(=O)C3CCCCCC3)cc2C1=O`, for which the IC50 is > 35 µM (inactive).

In the case of `C[C@@H]1CN([C@@H](C)CO)C(=O)c2cc(NC(=O)C3CCCCC3)ccc2O[C@@H](C)CCCCO[C@H]1CN(C)C(=O)Nc1cccc2ccccc12`, the IC50 is > 35 µM (inactive).

For `C[C@H](CO)N1C[C@H](C)[C@H](CN(C)C(=O)Nc2cccc3ccccc23)OCCCC[C@H](C)Oc2ccc(NC(=O)C3CCCCC3)cc2C1=O`, the IC50 was > 35 µM (inactive). Take `C[C@H](CO)N1C[C@H](C)[C@H](CN(C)C(=O)Nc2ccc(Cl)cc2)OCCCC[C@H](C)Oc2ccc(NC(=O)C3CCCCC3)cc2C1=O`: the IC50 is > 35 µM (inactive). `C[C@H](CO)N1C[C@H](C)[C@H](CN(C)C(=O)Nc2cccc(F)c2)OCCCC[C@H](C)Oc2ccc(NC(=O)C3CCCCC3)cc2C1=O`: the IC50 was > 35 µM (inactive). In the case of `C[C@H]1CCCCO[C@@H](CN(C)C(=O)Nc2cccc3ccccc23)[C@@H](C)CN([C@@H](C)CO)C(=O)c2cc(NC(=O)C3CCCCC3)ccc2O1`, the IC50 was > 35 µM (inactive). In the case of `C[C@H](CO)N1C[C@H](C)[C@H](CN(C)C(=O)Nc2ccc(F)cc2)OCCCC[C@H](C)Oc2ccc(NC(=O)C3CCCC3)cc2C1=O`, the IC50 is > 35 µM (inactive). `Cc1ccc(NC(=O)N(C)C[C@@H]2OCCCC[C@H](C)Oc3ccc(NC(=O)C4CCCCC4)cc3C(=O)N([C@H](C)CO)C[C@@H]2C)cc1`: the IC50 was > 35 µM (inactive).
